Patent publication US20240316147A1, “PHARMACEUTICAL COMPOSITION COMPRISING AN APL TYPE PEPTIDE” (CENTRO DE INGENIERIA GENÉTICA Y BIOTECNOLOGIA, priority 2017, published 2024)
“Also recorded” adds a separate entry of the source. Where no end group is shown, it is not given here.

Columns and labels:
Assay type in all cases: physicochemical
[1] = Molecular exclusion chromatography-HPLC of the peptide in water, PBS and sucrose; settings: dissolved in water (control)
Text: FIG. 3. Molecular exclusion chromatography—HPLC of the peptide of Seq ID No. 1 dissolved in water (A), in phosphate buffered saline (PBS) (B) and in sucrose (C).
In PBS the peptide eluted in a shorter retention time, compared to the sample dissolved in water and in sucrose solution.

[2] = Effect of pH on concentration and purity of the peptide in 50 mM sodium acetate buffer (RP-HPLC); settings: 2.5 mg/mL in 50 mM sodium acetate buffer, pH 3.0, 4.0, 5.0; 4° C. or 37° C., 15 days
Description: FIG. 4. Effect of pH on concentration of peptide identified as Seq ID No. 1, in samples formulated and stored at 4° C. (A) and at 37° C. (B).
FIG. 5. Effect of pH on the purity of the peptide identified as Seq ID No. 1, in samples formulated and stored at 37° C.
Three pH values were analyzed: 3.0; 4.0 and 5.0. Samples were filtered and stored at 4° C. or at 37° C., for 15 days. Evaluation of stability and concentration of peptide was carried out by RP-HPLC. Results of concentration of peptide stored at 4° C. or at 37° C., respectively, are shown in FIGS. 4A and 4B, respectively. […] At 37° C., precipitation process is accelerated.
Chemical integrity of peptide (expressed as % purity in RP-HPLC) was greater than 95%, for the samples formulated in three pH values, when these were stored at 4° C., for 15 days.

[3] = Solubility of the peptide in buffers and excipients, determined by RP-HPLC
Description: Different ionic species, pH and excipients were evaluated, to achieve the total solubility of the peptide, and a high chemical stability. Solubility of peptide was evaluated with different excipients, which included different ionic salts, sugars, polyols, amino acids and detergents.
First stage of the formulation development included the evaluation of buffer species influence and pH on chemical and physical stability of the peptide.

[4] = Stability of the peptide in 50 mM sodium phosphate buffer pH 7.4 at 37° C. (RP-HPLC, mass spectrometry)
Description: FIG. 1. Chromatographic profile of APL-type peptide identified as Seq ID No. 1 dissolved in 50 mM sodium phosphate buffer, pH 7.4. The profile was obtained by reverse phase chromatography (RP-HPLC), (A) time 0, (B) 15 days of storage at 37° C.
APL type peptide was obtained by chemical synthesis. […] To study the causes of such effect, peptide was dissolved in that buffer and stored at 37° C. for 15 days. Subsequently, several aliquots were analyzed periodically by RP-HPLC. Presence of contaminating species was verified, these were purified and analyzed by mass spectrometry, and several fractions were identified that could correspond to degradations.
In order to accelerate the degradation, peptide was incubated under stress conditions that allow the possible degraded species of the peptide to be obtained fast and in high proportions. Fractions collected after RP-HPLC were characterized by mass spectrometry.

SIDLKDKYKNIGAKLVQLVANNTNEEA [peptide identified as Seq ID No. 1]
solubility of peptide [1]: good solubility
physical stability of peptide [2]: greater at pH 3.0
solubility of peptide ([3]; in other ionic species: sodium citrate, sodium glutamate and Tris-HCl): very poorly soluble
solubility of peptide ([3]; in sodium phosphate buffer (50 mM, pH 7.4)): very poorly soluble; also recorded: poorly soluble
solubility of peptide ([3]; in solutions of sucrose or trehalose, peptide 1-10 mg/mL): highest solubility
solubility of peptide ([3]; sodium acetate buffer (acetic acid and sodium hydroxide), 10-70 mM): best solubilized the peptide
degraded species identified by mass spectrometry (fractions 1, 2 and 4) ([4]; 50 mM sodium phosphate buffer pH 7.4, 15 days at 37° C.): deamidated variants of the peptide
stability of peptide in solution ([4]; 50 mM sodium phosphate buffer, pH 7.4): progressively destabilized
